A short description of series [1]: Stability test of crystalline forms (high temperature, high humidity, irradiation; HPLC purity and crystal form). The series is classed as physicochemical. Here is the method:
Test samples were put into an open and proper clean container, and left to stand at 60° C. for 10 days. Samples were collected on day 5 and day 10;
Test samples were put into a closed humid container, and left to stand at 92.5%±5% RH/25° C. for 10 days. Samples were collected on day 5 and day 10;
Test samples were put into a lighting box or other suitable lighting devices (open) with fluorescent lamps at 4500 1×±500 1× for 10 days. Samples were collected on day 5 and day 10.
In the three conditions, the purity of the product and the contents of related substances were detected after the test samples were placed in the experimental conditions. • Instrument: Thermo U3000 high-performance liquid chromatography; • Detector: thermo VWD-3100 UV absorption detector/DAD-3000 diode array detector; • Chromatographic column: XSelect CSH C18 (4.6×150 mm, 3.5 μm); • Injection volume: 10 μL; detection wavelength: 280 nm; flow rate: 1.0 mL/min; column temperature: 30° C.; • Mobile phase: phase A: 0.1% of aqueous formic acid solution, phase B: acetonitrile, gradient elution; • Preparation of sample solution: An appropriate amount of the product was precisely, and dissolved in methanol. The solution was quantitatively diluted to obtain a solution containing about 0.5 mg per 1 mL as a test solution.

Series [2] is described as follows: Hygroscopicity test (Chinese Pharmacopoeia General Chapter 9103). The series is classed as physicochemical. Particulars: 25° C.±1° C., relative humidity 80%±2%, 24 h. The source says: For the method and conditions of the hygroscopicity test, please refer to the “Guidelines for the Hygroscopicity Test of Drugs” (General Chapter 9103, Chinese Pharmacopoeia, Volume IV, 2015 Edition). Hygroscopicity refers to the capability or degree of a substance for absorbing water in certain temperature and humidity conditions. The test samples were solid drug substances meeting the specifications, and the test results may be used as a reference for selection of suitable drug packaging and storage conditions. • (1) A dried glass weighing bottle with a plug (outer diameter: 50 mm; height: 15 mm) was taken and placed in a suitable thermostatic dryer (with saturated ammonium chloride or ammonium sulfate solution placed in the lower part) at 25° C.±1° C. or an artificial climate box (with a set temperature at 25° C.±1° C. and relative humidity at 80%±2%) on the day before the test, and the weight (m1) was precisely measured. • (2) An appropriate amount of test sample was taken and spread in the above weighing bottle, with the thickness of the test sample being about 1 mm in general, and the weight (m2) was precisely measured. • (3) The weighing bottle was opened and placed in the above conditions at constant temperature and humidity for 24 h together with the cap. • (4) The weighing bottle was capped, and the weight (m3) was precisely measured.

[3] abbreviates: High humidity 92.5 ± 5% RH/25° C., Day 0.
Where [4] appears, read: High humidity 92.5 ± 5% RH/25° C., Day 5.
[5] abbreviates: High humidity 92.5 ± 5% RH/25° C., Day 10.
The mark [6] stands for this setting: High temperature 60° C., open container, Day 0.
[7] abbreviates: High temperature 60° C., open container, Day 5.
The mark [8] stands for this setting: High temperature 60° C., open container, Day 10.
The mark [9] stands for this setting: Irradiation 4500 ± 500 lx, Day 0.
Setting [10] is: Irradiation 4500 ± 500 lx, Day 5.
The mark [11] stands for this setting: Irradiation 4500 ± 500 lx, Day 10.

With `CC1(C)CCC(CN2CCN(c3ccc(C(=O)NS(=O)(=O)c4ccc(NC[C@H]5COCCO5)c([N+](=O)[O-])c4)c(Oc4cnc5[nH]ccc5c4)c3)CC2)=C(c2ccc(C(F)(F)F)cc2Cl)C1` [Amorphous form], the Crystalline form result was “Amorphous” in series [1] (setting [3]); “Amorphous” in series [1] (setting [4]); “Amorphous” in series [1] (setting [5]); “Amorphous” in series [1] (High temperature 60° C., Day 0); “Amorphous” in series [1] (High temperature 60° C., Day 5); “Amorphous” in series [1] (High temperature 60° C., Day 10). In addition, the Crystalline form entry in series [1] (setting [9]), in series [1] (setting [10]) and in series [1] (setting [11]) was “Amorphous” each time. For the same molecule, the Purity in series [1] (setting [3]) turned out to be 97.91%; in series [1] (setting [4]), 97.85%; in series [1] (setting [5]), 97.89%; in series [1] (setting [6]), 97.91%; in series [1] (setting [7]), 97.51%; in series [1] (setting [8]) it was 97.33%. In addition, the results for the Purity in series [1] (setting [9]), in series [1] (setting [10]) and in series [1] (setting [11]) were 97.91%, 95.96% and 93.83%, respectively.
The molecule `CC1(C)CCC(CN2CCN(c3ccc(C(=O)NS(=O)(=O)c4ccc(NC[C@H]5COCCO5)c([N+](=O)[O-])c4)c(Oc4cnc5[nH]ccc5c4)c3)CC2)=C(c2ccc(C(F)(F)F)cc2Cl)C1` [Crystalline form A] came in with a Hygroscopic weight gain in series [2] of 1.38 wt %. Besides, the Purity in series [1] (setting [3]) stood at 97.92%; in series [1] (setting [4]) it was 97.84%; in series [1] (setting [5]), 97.91%; in series [1] (setting [6]) it was 97.92%; in series [1] (setting [7]), 97.41%; in series [1] (setting [8]), 97.17%. For the same molecule, the Purity in series [1] (setting [9]) is on record as 97.92%; in series [1] (setting [10]), 97.07%; in series [1] (setting [11]), 96.62%.
In series [2], `CC1(C)CCC(CN2CCN(c3ccc(C(=O)NS(=O)(=O)c4ccc(NC[C@H]5COCCO5)c([N+](=O)[O-])c4)c(Oc4cnc5[nH]ccc5c4)c3)CC2)=C(c2ccc(C(F)(F)F)cc2Cl)C1` [Crystalline form B] showed a Hygroscopic weight gain of 0.30 wt %. Moreover, the Purity in series [1] (setting [3]) is 98.44%; in series [1] (setting [4]) it was 98.45%; in series [1] (setting [5]), 98.36%; in series [1] (setting [6]) it was 98.44%; in series [1] (setting [7]), 98.34%; in series [1] (setting [8]), 98.22%. Besides, the Purity in series [1] (setting [9]) is given as 98.44%; in series [1] (setting [10]), 98.22%; in series [1] (setting [11]), 97.68%.
`CC1(C)CCC(CN2CCN(c3ccc(C(=O)NS(=O)(=O)c4ccc(NC[C@H]5COCCO5)c([N+](=O)[O-])c4)c(Oc4cnc5[nH]ccc5c4)c3)CC2)=C(c2ccc(C(F)(F)F)cc2Cl)C1` [Crystalline form C]: in series [2], the Hygroscopic weight gain worked out at 0.11 wt %. The Purity in series [1] (setting [3]) came to 98.56%; in series [1] (setting [4]) it was 98.70%; in series [1] (setting [5]) it was 98.64%; in series [1] (setting [6]), 98.56%; in series [1] (setting [7]) it was 98.25%; in series [1] (setting [8]) it was 97.31%. Also, the values for the Purity in series [1] (setting [9]), in series [1] (setting [10]) and in series [1] (setting [11]) were 98.56%, 98.45% and 98.15%, respectively.
On to `CC1(C)CCC(CN2CCN(c3ccc(C(=O)NS(=O)(=O)c4ccc(NC[C@H]5COCCO5)c([N+](=O)[O-])c4)c(Oc4cnc5[nH]ccc5c4)c3)CC2)=C(c2ccc(C(F)(F)F)cc2Cl)C1` [Crystalline form D], for which the Hygroscopic weight gain in series [2] was 0.75 wt %.
`CC1(C)CCC(CN2CCN(c3ccc(C(=O)NS(=O)(=O)c4ccc(NC[C@H]5COCCO5)c([N+](=O)[O-])c4)c(Oc4cnc5[nH]ccc5c4)c3)CC2)=C(c2ccc(C(F)(F)F)cc2Cl)C1` [Crystalline form E] returned a Hygroscopic weight gain in series [2] of 0.11 wt %. In addition, the Purity is given as 98.02% in series [1] (setting [3]); 97.89% in series [1] (setting [5]); 98.02% in series [1] (setting [6]); 97.88% in series [1] (setting [8]); 98.02% in series [1] (setting [9]); 97.71% in series [1] (setting [11]).
For the molecule `CC1(C)CCC(CN2CCN(c3ccc(C(=O)NS(=O)(=O)c4ccc(NC[C@H]5COCCO5)c([N+](=O)[O-])c4)c(Oc4cnc5[nH]ccc5c4)c3)CC2)=C(c2ccc(C(F)(F)F)cc2Cl)C1` [Crystalline form F], in series [2], the Hygroscopic weight gain was determined as 0.76 wt %.
Same read-out and setting: the figure for `CC1(C)CCC(CN2CCN(c3ccc(C(=O)NS(=O)(=O)c4ccc(NC[C@H]5COCCO5)c([N+](=O)[O-])c4)c(Oc4cnc5[nH]ccc5c4)c3)CC2)=C(c2ccc(C(F)(F)F)cc2Cl)C1` [Crystalline form H] is 0.25 wt %.

The values above are taken from US12545674B2, “Crystal of trifluoromethyl/chloro disubstituted sulfonamide selective BCL-2 inhibitor” (priority 2020, dated 2026).
